Series [1] relates to CFA-induced change in weight bearing in Sprague-Dawley rats. The experiment in a line: CFA model of chronic inflammatory pain, hindpaw weight bearing. Format: in vivo, rat. To be noted: 24 h after CFA; 60 min after drug; Compound A 5, 10, 20 mg/kg i.p.; Compound H 10, 30, 60 mg/kg; morphine 3, 6, 10 mg/kg; n=7-8. As for the experimental part:
Rats (body weight 260-300 g) were given a s.c. injection of CFA (50% in saline, 100 μl, Sigma) into the plantar surface of the hindpaw under brief halothane anaesthesia. After 24 h, they were then tested for hindpaw weight bearing responses, as assessed using an Incapacitance Tester (Linton Instrumentation, UK), (Zhu et al., 2005). The instrument incorporates a dual channel scale that separately measures the weight of the animal distributed to each hindpaw. While normal rats distribute their body weight equally between the two hindpaws (50-50), the discrepancy of weight distribution between an injured and non-injured paw is a natural reflection of the discomfort level in the injured paw (nocifensive behavior). The rats were placed in the plastic chamber designed so that each hindpaw rested on a separate transducer pad. […] For each rat, three readings from each paw were taken and then averaged. Side-to-side weight bearing difference was calculated as the average of the absolute value of the difference between two hindpaws from three trials (right paw reading-left paw reading).
Hindpaw weight bearing responses were measured in male Sprague-Dawley rats for 2-3 days prior to being given a hindpaw injection of CFA. Twenty-four hours later baseline responses were measured and rats were then administered Compound A (5, 10 and 20 mg/kg, i.p.), Compound H (10, 30 and 60 mg/kg) and morphine (3, 6 and 10 mg/kg). Weight bearing responses were then measured at 30, 60 and 120 min after drug or vehicle injection (data shown at 60 min.). […] All groups n=7-8.

The subject of series [2] is formalin-induced pain in Sprague-Dawley rats. The experiment in a line: Formalin model of acute tonic pain. The format is in vivo, rat. As for the experimental part: Male Sprague-Dawley rats are housed together in groups of three animals under standard conditions with unrestricted access to food and water. All experiments are conducted according to the ethical guidelines for investigations of experimental pain in conscious animals (Zimmerman, 1983)
Assessment of formalin-induced flinching behavior in normal, uninjured rats (body weight 150-180 g) was made with the use of an Automated Nociception Analyser (University of California, San Diego, USA). Briefly, this involved placing a small C-shaped metal band (10 mm wide×27 mm long) on the hindpaw of the rat to be tested. The rats (four rats were included in each testing session) were then placed in a cylindrical plexiglass observation chamber (diameter 30.5 cm and height 15 cm) for 20 min for adaptation purposes prior to being administered drug or vehicle according to the experimental paradigm being followed. After adaptation, individual rats were then gently restrained and formalin (5% in saline, 50 μl, s.c.) was injected into the plantar surface of the hindpaw using a 27 G needle. Rats were then returned to their separate observation chambers, each of which were in turn situated upon an enclosed detection device consisting of two electromagnetic coils designed to produce an electromagnetic field in which movement of the metal band could be detected. The analogue signal was then digitised and a software algorithm (LabView) applied to enable discrimination of flinching behaviour from other paw movements. A sampling interval of 1 min was used and on the basis of the resulting response patterns 5 phases of nociceptive behaviour were identified and scored: first phase (P1; 0-5 min), interphase (Int; 6-15 min), second phase (P2; […]), phase 2A (P2A; 16-40 min) and phase 2B (P2B; 41-60 min).
Nociceptive behavior was also determined manually every 5 min by measuring the amount of time spent in each of four behavioral categories: 0, treatment of the injected hindpaw is indistinguishable from that of the contralateral paw; 1, the injected paw has little or no weight placed on it; 2, the injected paw is elevated and is not in contact with any surface; 3, the injected paw is licked, bitten, or shaken. A weighted nociceptive score, ranging from 0 to 3 was calculated by multiplying the time spent in each category by the category weight, summing these products, and dividing by the total time for each 5 min block of time. (Coderre et al., Pain 1993; 54: 43). On the basis of the resulting response patterns, 2 phases of nociceptive behavior were identified and scored: first phase (P1; 0-5 min), interphase (Int; 6-15 min), second phase (P2; […]), phase 2A (P2A; 16-40 min) and phase 2B (P2B; 41-60 min).
Statistical analysis was performed using Prism™ 4.01 software package (GraphPad, San Diego, Calif., USA). The difference in response levels between treatment groups and control vehicle group was analyzed using an ANOVA followed by Bonferroni's method for post-hoc pair-wise comparisons. A p value<0.05 was considered to be significant
The effect of Compound A on pain induced by intraplantar formalin injection was investigated. Compound A was administered i.p. 30 min. before the formalin. Compound A was able to reduce the total pain score behavior (flinching, licking, biting) in phase 1 and 2 of the formalin test.

A short description of series [3]: Liver microsomes stability and metabolite identification (LC-MS), rat. The format is in vitro ADME. The source says:
The objective of this study is to analyze in vitro samples of Compound A and Compound B from rat and human microsomes using liquid chromatography quadrupole ion trap mass spectrometry and identify the nature of the metabolite(s) for each species.
The HPLC system consisted of a Thermo Surveror autosampler and a Thermo Surveyor MS pump (San Jose, Calif., USA). The LC-MS/MS system used was a Thermo LCQ Advantage (San Jose, Calif., USA). Data was acquired on a Dell Optiplex desktop computer (Round Rock, Tex., USA) equipped with operation system Windows XP professional. Data acquisition and analysis were performed using XCalibur 1.4 (San Jose, Calif., USA).
After the incubation period of the liver microsomes, the reaction was stopped with the addition of acetonitrile and frozen for transport. Before analysis, the samples were thawed at room temperature. They were vortexed vigorously and centrifuged at approximately 12000 g for 10 minutes. The supernatant was transferred into an injection vial for analysis.
A gradient mobile phase was used with a Thermo Phenyl 100×2 mm column with particle size of 5 μm. The initial mobile phase condition consisted of methanol and 0.1% formic acid solution at a ratio of 20:80, respectively. From 0 to 2 minutes, the ratio was maintained at 20:80. From 2 to 10 minutes, a linear gradient was applied and a ratio of 90:10 was maintained from 10 to 12 minutes. […] The flow rate was fixed at 0.25 mL/min.
The mass spectrometer was interfaced with the HPLC system using a pneumatic assisted electrospray ion source. The sheath gas was set to 15 units and the ESI electrode was set to 4000 V (positive mode). The capillary temperature was set at 300° C., and the capillary voltage was set to 13 V. The mass spectrometer was operating in full scan MS mode using one segment analysis (200-800).

Where [4] appears, read: i.p. 30 min before formalin, n=6-8.
Where [5] appears, read: rat microsomes 60 min (samples 5-7).

Values joined by “and” are separate entries in the source; they are usually repeats but may differ in a detail not shown here. Identical values can stand only once.

On to `COc1ccc(F)cc1-c1cc2c(c3c1CCN(C)C3)NC(=O)C2=NO` [Compound A, 5-(5-fluoro-2-methoxyphenyl)-6,7,8,9-tetrahydro-3-(hydroxyimino)-8-methyl-1H-pyrrolo[3,2-h]isoquinoline-2(3H)-one], for which, in series [1], the “CFA-induced change in weight bearing compared with vehicle” value is given as “marked dose-dependent attenuation”. The ED50 (as a rule, the midpoint of the dose-response relation) in series [2] (Rattus norvegicus, ip, i.p. 30 min before formalin, read-out: ED50, Phase 2 of the total pain score) is approximately 12 mg/kg. The “relationship between dose and plasma exposure” value in series [2] (formalin experiments, i.p.) was “linear relationship”. In series [2] (setting [4]), the “effects on phases 1 and 2, specific pain behaviors (licking and biting) only” value is given as “quite pronounced”; the “total pain score behavior (flinching, licking, biting) in phase 1 and 2 of the formalin test” value is given as “reduce”. Besides, in series [2] (rat, in vivo), the “acute tonic pain induced by formalin injection in the paw” value is recorded as “block”. Besides, the Total % metabolites in series [3] (% peak area relative to parent at T0, 60 min incubation, rat microsomes) is reported as 32.76%. In series [3] (setting [5]), the “Compound A metabolite identification: m/z 342” value is reported as “Yes”, the “Compound A metabolite identification: m/z 356 (parent)” value is listed as “Yes”, the “Compound A metabolite identification: m/z 372” value is recorded as “Yes” and the “Compound A metabolite identification: m/z 412” value is given as “trace”. Also, the “Calc. Conc.” value in series [3] (rat microsomes, time 0 min) is 3.61 µM and 3.80 µM. In addition, the “Calc. Conc.” value in series [3] (rat microsomes, time 60 min) is 2.49 µM and 2.67 µM and 2.40 µM.
